The results in this text go back to patent US20240240189A1, “CANCER TREATMENT BY TARGETING PROTEINS OR INTERACTIONS OF EPHRINB-RGS3-KIF20A-SEPT7 AXIS” (CITY OF HOPE, priority 2021, published 2024).

“Also recorded” adds a separate entry of the source.

Data set [1] relates to GISC017 cells. Kind of data set: Cell cycle exit analysis (EdU/Ki67) in GISC017 cells. Conditions: shRNA expression vs scrambled shRNA. The format is cell-based, human. The source says: (§1) To further investigate the relevance of KIF20A in human brain tumors, inhibition of KIF20A in patient-derived GBM-initiating/stem cells (GISCs) was examined. As the ERKS axis functions in different types of brain tumor-initiating/stem cells, data obtained from study of GISCs would be applicable to other brain tumor cell types. Multiple lines of patient-derived GISCs were obtained from Dr. Christine Brown. These low passaged GISCs could be expanded in cultures and could engraft in NSG mice^43, 44. FIG. 11 summarizes the results of testing KIF20A in one GISC line (GISC017) by constitutive expression of a control scrambled shRNA or shKIF20A726 (shRNA targeting hKIF20A) in pNUT vector-based lentiviral expression system. […] In the above cell cycle exit analysis, co-staining of differentiation markers (e.g. βlll-tubulin, DCX, or NeuN) was performed, however, these markers were detected in EdU^+Ki67^− (cells having left the cell cycle) but also in some EdU^+Ki67^+ (cells staying in the cell cycle) cells, which might reflect a technical artefact observed with progenitor/stem cells in culture. […]

A further data set has as its system Daoy human MB cells. Kind of data set: Growth assay of Daoy cells. Type of data set: cell-based. Conditions: three Daoy clones, inducible expression of shKIF20A726 (+Dox). Here is the method:
(§2) Generation of Daoy cell lines with stably integrated Tet-on inducible shRNA expression system: Daoy cells were infected with lentivirus of Tet-on inducible human KIF20A shRNA-726 and GFP-Luciferase prepared from Tet-pLKO-hushKIF20A726 plasmid and Hiv7CMVGFP-IRES-Luciferase plasmid, respectively. The transduced Daoy cells were selected for stable single clones with Puromycin (1 μg/ml, Sigma-Aldrich) and GFP fluorescence signal in DMEM (Invitrogen) with 10% fetal bovine serum. Single clones were picked up by glass cloning cylinders (Sigma-Aldrich) in 10 cm plate.
Growth Assay of tumor cells: Mouse MB cell lines, or Daoy clones stably integrated with Tet-on inducible human KIF20A shRNA-726, or Wild Type Daoy cells, were seeded into multiple wells of 24 well plates (2×10^4 or 1×10^4 cells per well). Cells in quadruplicate were then dissociated and counted using a hemocytometer at consecutive days after initial plating.

Data set [2] concerns GISC017 cells. Put plainly: Cell growth of GISC017 cells. Type of data set: cell-based, human. Conditions: vs scrambled shRNA.
From the text: as §1

In data set [3] the test system is KIF20A. Kind of data set: Western blot of KIF20A in Daoy clones with Tet-on shKIF20A726. Type of data set: cell-based, human. Conditions: three Daoy clones, doxycycline induction of Tet-on shKIF20A726. On the procedure: Western Blot: Daoy cell clones stably integrated with Tet-on shKIF20A726 were cultured with or without Doxycycline induction for 3 days. These Daoy cells were washed with PBS, lysed with 2×SDS loading buffer and boiled for 5 minutes. Denatured proteins were resolved by SDS-PAGE and transferred to a PVDF membrane for Western blot detection by KIF20A (L13) antibody (1:500) and HRP-conjugated Donkey anti-Goat second antibody (1:2500) with chemiluminescent substrate (ThermoFisher Scientific, Cat: 34095).
as §2, with “plate. Three clones were obtained and tested for growth ability and doxycycline (0.5 μg/ml) inducibility using growth curve assay, western blots and luciferase reporter assay system. Clone #2 was selected for further use.” for “plate.”
For orientation: Immunoblotting shows a protein as a band on a membrane.

Data set [4] has as its system GISC017 cells. Put plainly: Flow cytometry-based cell cycle analysis (4N DNA content) of GISC017 cells. Also noted: species or system human. Conditions: vs scrambled shRNA.
From the text: as §1

Data set [5] has as its system KIF20A. Kind of data set: KIF20A knockdown in GISC017 cells by lentiviral shRNA. The format is cell-based, human. Conditions: constitutive lentiviral expression, vs scrambled shRNA.
From the text: as §1

Data set [6] concerns GISC017 cells. Put plainly: GISC017 xenograft in brains of NSG mice. Conditions: GISC017 clones with Tet-inducible shKIF20A726 in NSG mouse brain, doxycycline treatment. The format is in vivo. Here is the method: FIG. 12a: NSG mice were injected with GISC017 cells stably integrated with Tet-inducible shRNA and luciferase. Treatment with doxycycline started at 10 days after cell implantation (indicated by the red line). FIG. 12b: Survival data of the mice were analyzed by Kaplan-Meier plot.
GISC017 cell clones stably integrated with a Tet-inducible shKIF20A726 and luciferase expression cassette were established.

As to “5′-GAGGAGTGTCTACATCGAA-TTCAAGAGA-TTCGATGTAGACACTCCTC-3′ (GAGGAGTGTCTACATCGAATTCAAGAGATTCGATGTAGACACTCCTC; hairpin, further chemistry not given here) [shKIF20A726, shRNA targeting human KIF20A transcript]”, the “cell cycle exit (EdU+Ki67− cells)” value in the data set with GISC017 cells [1] is “more cells exiting the cell cycle; also recorded: increase of GFP+EdU+Ki67− cells”. The cell proliferation result in the data set on Daoy human MB cells is recorded as “significantly inhibit the proliferation of all three clones; also recorded: inhibit cell proliferation”. In addition, in the data set with GISC017 cells [2], the cell growth rate result is recorded as “slower cell growth rate; also recorded: inhibited cell growth”. Besides, the “KIF20A expression (Western blot)” value in the data set with KIF20A [3] is “significant knockdown of KIF20A expression in all three cell clones; also recorded: reduction of KIF20A expression”. Also, the “4N DNA contents / cytokinesis” value with GISC017 cells [4] is listed as “comparable; also recorded: did not cause obvious change in cytokinesis”. In addition, the KIF20A level result in the data set with KIF20A [5] is reported as “strongly knocked down KIF20A level; also recorded: significant knockdown of KIF20A expression”. Also, in the data set with GISC017 cells [6], the animal survival result is “prolong animal survival” and the tumor xenograft growth result is recorded as “suppress tumor xenograft growth”.
